Reference: patent publication US7125849B2, “Peptide-based angiogenesis inhibitors and methods of use thereof” (The Scripps Research Institute, priority 2003, dated 2006)
No end group written: not given here.

Experiments:
[1] = system: Human umbilical vein endothelial cells (HUVECs); assay: In vitro tube formation assay in 3-dimensional matrix; assay type: cell-based; conditions: about 48 hours
Description: Formation of Three-dimensional Collagen Gels. Collagen gels were formed by mixing ice-cold gelation solution (10× M199, H2O, 0.53 mol/L NaHCO3, 200 mmol/L L-glutamine, type I collagen, 0.1 mol/L NaOH; 100:27.7:50:10:750:62.5 by volume) with cells in 1×-basal medium at a concentration of about 3×10^6 cells/ml at a ratio of about 4 volumes of gelation solution to about 1 volume of cells by the method of Yang et al. Am. J. Pathol., 1999, 155:[…] (hereinafter “Yang et al.”). The gels were allowed to form by incubation in a CO2-free incubator at a temperature of about 37° C. for about 30–60 minutes. […]
Quantification of Tube Formation. […] The total length of each tube or the long axis of single cells or groups of adjacent cells was measured, and the raw data was imported into a Microsoft Excel spread sheet. The mean tube length was determined for each well, followed by determination of the mean data and SEM for each experimental group.
As an initial test of the PRO effect on endothelial cell behavior in 3-dimensional matrices, in vitro tube formation assays in matrigel were carried out. […] Tube formation was quantitated by determining the length of endothelial cell tubes.

HMEC-1 cells = assay: Endothelial cell migration by time lapse imaging
Procedure: Microscopy. To assay migration, HMEC-1 cells were treated with various concentrations of either PRO polypeptide or mutant peptide prior to plating. Cells were plated on coverslips coated with about 2 μg/ml of fibronectin (FN). Dishes containing coverslips were prepared as described by Kiosses et al., and maintained at a temperature of about 37° C., under an atmosphere containing about 5% carbon dioxide as described by Schwartz, J. Cell Biol., 1993, 120:1003–1010. The cells were viewed with a Nikon DiaPhot Microscope equipped with a SenSys cooled CCD video camera linked to a Silicon Graphics workstation running the Inovision ISEE software program. At the end of the experiment, images of each cell were outlined and the centroid (cell center) calculated. Displacement of the centroid was then used to determine movement of the cell over time. Statistical analysis was performed using Microsoft EXCEL statistics software. Approximately 50 cells were filmed and tracked per experiment, with at least 3 independent experiments for both the PRO and the mutant peptide. Results were expressed as means±standard error of the mean. The Students t-test was used to determine whether the observed differences were statistically significant (p=0.05).

[2] = system: chorioallantoic membrane (CAM) of chick embryos; assay: Chick CAM in vivo angiogenesis assay (bFGF-induced); conditions: bFGF filters, examined 3 days later, compared to untreated filters, FIG. 6
Procedure: Chick Cam Assays. In vivo angiogenesis assays were performed essentially as previously described by Brooks, et al., Cell, 1994, 79:1157–1164, the relevant disclosures of which are incorporated herein by reference. Filter discs saturated with 1.0 ug/ml bFGF were placed on the chorioallantoic membranes (CAMs) of 10-day-old chicken embryos, immediately followed by daily topical addition of either a PRO inhibitory peptide (20 μgs) or a control peptide ([…]) in 20 μl of fibroblast growth medium (FGM). After 72 hours, the filter discs and associated CAM tissue were harvested and quantified. Angiogenesis was assessed as the number of visible blood vessel branch points within the defined area of the filter discs. At least 20 CAMs were used for each treatment.
New blood vessels invade the filter dishes within 2–5 days, and angiogenesis can be readily detected. Filters without any additions, with control or with the PRO compound of Example 1 were implanted and examined 3 days later.

endothelial cells = assay: Contractility on flexible silicone rubber substrates (wrinkle assay); assay type: cell-based; conditions: about 10 μM, FIG. 4
Description: Contractility. To visualize cell contractility, flexible rubber substrates were generated as described by Bussolino et al., J. Biol. Chem., 1989, 264:18284–18287. Briefly, silicone rubber (polydimethylsiloxane), having a viscosity of about 10000 centistokes (Dow Corning Co.) was applied to the coverslip at the bottom of 35 mm tissue culture dishes and coated with a thin layer of gold-palladium using a Hummer VI sputter coater, which polymerized a thin layer of silicon rubber. The surface was additionally coated with about 2 μg/ml of fibronectin (FN). Treated and un-treated endothelial cells were plated on the rubber substrate and allowed to adhere. Cells that had wrinkled the substrate beneath were visualized for about 4 hours and then scored by time-lapse phase contrast microscopy. Following this period, the cells were treated with Cytochalasin D (about 1 μg/ml) (Molecular Probes) to release all wrinkles that were due to actin-dependent cell tension.
To examine effects on contractility, cells were plated on elastic substrata, as described above, that can be pulled into wrinkles by cell-generated forces.

Nck = molecular target: T1, Nck (Homo sapiens, UniProt P16333); assay: Affinity chromatography of endothelial cell extracts on peptide-agarose, western blot with anti-Nck; assay type: binding; conditions: detergent extracts of human endothelial cells
T1 construct: endogenous in cells; host or cells: human endothelial cells (cell type for this assay not further specified)
Procedure: Affinity Chromatography. PRO or control peptides containing an N-terminal cysteine were dissolved in about 1 ml of coupling buffer (50 mM tris pH 8.0, 5 mM EDTA) and about 0.5 ml at about 3 mg/ml peptide added to about 2 ml of activated thiol-Sepharose (Pharmacia). Samples were incubated at a temperature of about 4° C. overnight with 1% β-mercaptoethanol added to block unreacted sites. Beads were rinsed and stored at a temperature of about 4° C. Endothelial cell cultures in 15 cm dishes were extracted in about 1.0 ml of cold (about 4° C.), lysis buffer (20 mM pH 7.4 sodium phosphate, 100 mM NaCl, 1% Triton X-100, 10 mM NaF, 2 mM EDTA, 1 mM sodium orthovanadate, 1 mM PMSF, 10 μg/ml each of leupeptin and aprotinin). The extracts were centrifuged for about 10 minutes at top speed in a microfuge and the supernatants were then removed. A 0.5 ml sample of each extract was incubated with about 10 μl of packed beads for about 1 hour, with rotation at a temperature of about 4° C. The beads were rinsed with lysis buffer (about 4×0.5 ml) and dissolved in SDS sample buffer (about 0.04 ml). Samples were analyzed by SDS PAGE on 10% gels and immunoblotting with anti-NCK (Santa Cruz) and HRP-protein A as secondary, and then were developed and detected using enhanced chemiluminescence (ECL kit, Amersham). […]

Row | Binding of Nck from endothelial cell lysates (Nck) | Substance | Cell number [1] | Morphology of individual cells [1] | Migration rates over the time course (argues against toxicity) (HMEC-1 cells; FIG. 3B) | Angiogenesis in CAM (vascular branch points) [2] | Cell contractility (wrinkles of elastic substratum) (endothelial cells) | Endothelial cell migration rate (HMEC-1 cells; about 10 μM peptide, time lapse imaging, FIG. 3A)
1 |  | YGRKKRRQRRRGKPPAPPMRNTSTM [SEQ ID NO: 4] | nor was cell number greatly altered | not noticeably perturbed | essentially constant |  |  | 
2 | no detectable Nck was bound | SEQ ID NO: 5: control peptide in which the first two prolines of SEQ ID NO: 4 were replaced by the amino acids A and G (YGRKKRRQRRRGKAGAPPMRNTSTM; fusion protein fragment) |  |  |  | essentially no effect | had no effect | no significant effect on migration
